Measured values published in the NIST ThermoML archive (doi:10.1021/acs.jced.5b00285).
Numbers after ± are expanded uncertainties.

Settings: 101.33 kPa, Liquid; for electrical conductivity: Alternating current cell with electrodes; for mass density: Vibrating tube method

`CCCCCCCCn1cc[n+](C)c1.O=S(=O)([N-]S(=O)(=O)C(F)(F)F)C(F)(F)F` gave an electrical conductivity (273.15 K) of 0.0308 ± 0.0012 S/m, an electrical conductivity (278.15 K) of 0.0432 ± 0.0017 S/m and an electrical conductivity (283.15 K) of 0.059 ± 0.0024 S/m. For the same compound, the electrical conductivity (288.15 K) was 0.0784 ± 0.0031 S/m, the electrical conductivity (293.15 K) was 0.102 ± 0.0041 S/m and the electrical conductivity (298.15 K) was 0.131 ± 0.0052 S/m. For the same compound, the electrical conductivity (303.15 K) was 0.164 ± 0.0066 S/m, the electrical conductivity (308.15 K) was 0.204 ± 0.0041 S/m and the electrical conductivity (313.15 K) was 0.246 ± 0.0098 S/m. For the same compound, the electrical conductivity (318.15 K) was 0.298 ± 0.006 S/m, the electrical conductivity (323.15 K) was 0.351 ± 0.014 S/m and the electrical conductivity (328.15 K) was 0.415 ± 0.0083 S/m. The electrical conductivity (333.15 K) was 0.478 ± 0.019 S/m, the electrical conductivity (338.15 K) was 0.556 ± 0.011 S/m and the electrical conductivity (343.15 K) was 0.627 ± 0.025 S/m. It also gave an electrical conductivity (348.15 K) of 0.72 ± 0.014 S/m, an electrical conductivity (353.15 K) of 0.801 ± 0.032 S/m and an electrical conductivity (358.15 K) of 0.906 ± 0.018 S/m. It also gave an electrical conductivity (368.15 K) of 1.11 ± 0.022 S/m, an electrical conductivity (378.15 K) of 1.34 ± 0.027 S/m and an electrical conductivity (388.15 K) of 1.59 ± 0.032 S/m. The electrical conductivity (398.15 K) was 1.85 ± 0.037 S/m, the electrical conductivity (408.15 K) was 2.13 ± 0.043 S/m and the electrical conductivity (418.15 K) was 2.42 ± 0.048 S/m. For the same compound, the electrical conductivity (428.15 K) was 2.72 ± 0.054 S/m, the electrical conductivity (438.15 K) was 3.04 ± 0.061 S/m and the electrical conductivity (448.15 K) was 3.36 ± 0.067 S/m. For the same compound, the electrical conductivity (458.15 K) was 3.69 ± 0.074 S/m and the electrical conductivity (468.15 K) was 4.03 ± 0.081 S/m.

In the case of `CCCCCC[n+]1ccn(C)c1.O=S(=O)([N-]S(=O)(=O)C(F)(F)F)C(F)(F)F`, the viscosity (278.15 K) is reported as 210.6 ± 12 mPa·s, the electrical conductivity (278.15 K) is reported as 0.0776 ± 0.0015 S/m and the mass density (278.15 K) is reported as 1391.02 ± 2.8 kg/m3. It also gave a mass density (283.15 K) of 1386.34 ± 2.8 kg/m3, a viscosity (288.15 K) of 116.7 ± 5.5 mPa·s and an electrical conductivity (288.15 K) of 0.136 ± 0.0027 S/m. The mass density (288.15 K) was 1381.65 ± 2.8 kg/m3, the mass density (293.15 K) was 1376.98 ± 2.8 kg/m3 and the viscosity (298.15 K) was 70.51 ± 3 mPa·s. It also gave an electrical conductivity (298.15 K) of 0.218 ± 0.0044 S/m, a mass density (298.15 K) of 1372.35 ± 2.8 kg/m3 and a mass density (303.15 K) of 1367.74 ± 2.8 kg/m3. The viscosity (308.15 K) was 45.51 ± 1.9 mPa·s, the electrical conductivity (308.15 K) was 0.328 ± 0.0066 S/m and the mass density (308.15 K) was 1363.15 ± 2.8 kg/m3. For the same compound, the mass density (313.15 K) was 1358.58 ± 2.8 kg/m3, the viscosity (318.15 K) was 31.03 ± 1.3 mPa·s and the electrical conductivity (318.15 K) was 0.466 ± 0.0093 S/m. The mass density (318.15 K) was 1354.02 ± 2.8 kg/m3, the mass density (323.15 K) was 1349.49 ± 2.7 kg/m3 and the viscosity (328.15 K) was 22.14 ± 0.91 mPa·s. It also gave an electrical conductivity (328.15 K) of 0.634 ± 0.013 S/m, a mass density (328.15 K) of 1344.97 ± 2.7 kg/m3 and a mass density (333.15 K) of 1340.47 ± 2.7 kg/m3. The viscosity (338.15 K) was 16.4 ± 0.68 mPa·s, the electrical conductivity (338.15 K) was 0.83 ± 0.017 S/m and the mass density (338.15 K) was 1335.98 ± 2.7 kg/m3. The mass density (343.15 K) was 1331.51 ± 2.7 kg/m3, the viscosity (348.15 K) was 12.59 ± 0.52 mPa·s and the electrical conductivity (348.15 K) was 1.05 ± 0.021 S/m. The mass density (348.15 K) was 1327.05 ± 2.7 kg/m3, the mass density (353.15 K) was 1322.61 ± 2.7 kg/m3 and the viscosity (358.15 K) was 9.957 ± 0.41 mPa·s. It also gave an electrical conductivity (358.15 K) of 1.3 ± 0.026 S/m, a mass density (358.15 K) of 1318.18 ± 2.7 kg/m3 and a mass density (363.15 K) of 1313.77 ± 2.7 kg/m3. For the same compound, the viscosity (368.15 K) was 8.066 ± 0.33 mPa·s, the electrical conductivity (368.15 K) was 1.58 ± 0.032 S/m and the viscosity (378.15 K) was 6.673 ± 0.27 mPa·s. The electrical conductivity (378.15 K) was 1.88 ± 0.037 S/m, the viscosity (388.15 K) was 5.623 ± 0.23 mPa·s and the electrical conductivity (388.15 K) was 2.19 ± 0.044 S/m. For the same compound, the viscosity (398.15 K) was 4.819 ± 0.2 mPa·s, the electrical conductivity (398.15 K) was 2.53 ± 0.051 S/m and the viscosity (408.15 K) was 4.19 ± 0.17 mPa·s. The electrical conductivity (408.15 K) was 2.88 ± 0.058 S/m, the electrical conductivity (418.15 K) was 3.24 ± 0.065 S/m and the electrical conductivity (428.15 K) was 3.62 ± 0.072 S/m. It also gave an electrical conductivity (438.15 K) of 4.01 ± 0.08 S/m, an electrical conductivity (448.15 K) of 4.41 ± 0.088 S/m and an electrical conductivity (458.15 K) of 4.82 ± 0.096 S/m. It also gave an electrical conductivity (468.15 K) of 5.24 ± 0.1 S/m.
